Several values for one entry are separate records, joined by “and”; a condition that tells them apart may be missing. Identical values can stand only once.
Tests used:
AaegOR6 = target: T1, AaegOR6 (Aedes aegypti, UniProt A0A1S4G757); test: Two-electrode voltage clamp of Xenopus laevis oocytes expressing AaegOR6/Orco (blends, unitary compounds, concentration-response); assay type: cell-based; details: for Raw data (Responses in nA) Oocyte 1 / Raw data (Responses in nA) Oocyte 2 / Raw data (Responses in nA) Oocyte 3 / Raw data (Responses in nA) Oocyte 4 / Raw data (Responses in nA) Oocyte 5 / Raw data (Responses in nA) Oocyte 6 / Raw data (Responses in nA) Oocyte 7 / Raw data (Responses in nA) Oocyte 8: Indoles 2 unitary compounds
T1 sequence (A0A1S4G757 1-398): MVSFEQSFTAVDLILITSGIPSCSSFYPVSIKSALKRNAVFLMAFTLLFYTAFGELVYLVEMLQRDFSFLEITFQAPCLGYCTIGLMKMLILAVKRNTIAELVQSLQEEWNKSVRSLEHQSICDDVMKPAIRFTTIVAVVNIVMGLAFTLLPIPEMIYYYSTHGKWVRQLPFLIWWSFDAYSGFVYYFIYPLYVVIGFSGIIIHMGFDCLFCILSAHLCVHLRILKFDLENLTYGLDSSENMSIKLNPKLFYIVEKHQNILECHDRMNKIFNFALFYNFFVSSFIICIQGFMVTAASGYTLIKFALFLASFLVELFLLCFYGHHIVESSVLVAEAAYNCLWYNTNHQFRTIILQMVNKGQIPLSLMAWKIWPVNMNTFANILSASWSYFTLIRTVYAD
T1 sequence (Q178U6 1-478 partner): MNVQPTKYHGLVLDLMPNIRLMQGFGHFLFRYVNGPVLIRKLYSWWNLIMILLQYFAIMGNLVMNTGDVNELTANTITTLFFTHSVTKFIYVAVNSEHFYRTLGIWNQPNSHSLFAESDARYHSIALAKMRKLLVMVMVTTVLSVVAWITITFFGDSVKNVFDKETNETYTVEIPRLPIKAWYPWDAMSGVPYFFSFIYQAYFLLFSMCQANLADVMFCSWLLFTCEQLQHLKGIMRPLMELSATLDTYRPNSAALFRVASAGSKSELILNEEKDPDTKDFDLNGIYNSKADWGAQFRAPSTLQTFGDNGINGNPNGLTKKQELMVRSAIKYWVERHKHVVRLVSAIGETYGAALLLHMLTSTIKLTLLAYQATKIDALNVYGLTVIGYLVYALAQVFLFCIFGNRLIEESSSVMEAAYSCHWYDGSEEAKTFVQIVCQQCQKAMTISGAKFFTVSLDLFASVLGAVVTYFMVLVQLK
Source text: (§1) The coding regions of ten AaegOR genes of interest (S3 File) and AaegOrco were synthesized by Twist Bioscience (San Francisco, CA, USA) and cloned into the pENTR plasmid. The Gateway LR directional cloning system (Invitrogen Corp., Carlsbad, CA, USA) was utilized to subclone AaegOR coding regions into the pSP64t-RFA oocyte expression plasmid. Plasmids were purified using the GeneJet Plasmid Miniprep Kit (ThermoFisher Scientific, Waltham, MA, USA). Purified plasmids were sequenced in both directions to confirm coding regions.
(§2) Chemical compounds (S6 File) used in the deorphanization of AaegORs were purchased from Acros Organics (Morris, NJ, USA), Alfa Aesar (Ward Hill, MA, USA), and ThermoFisher Scientific (Waltham, MA, USA) at the highest purity available. Compounds were stored as 1M stocks in 100% DMSO. Serial dilutions of each compound were prepared in 10% DMSO and blended by chemical class.
(§3) pSP64t-RFA: AaegOR clones were linearized using Xbal, and cRNAs were synthesized using the mMESSAGE mMACHINE ® SP6 kit (Life Technologies, Carlsbad, CA, USA). Xenopus laevis stage V-VII oocytes purchased from Xenopus1 (Dexter, MI, USA) were stored at 18°C in Incubation medium (ND96 96 with 5% dialyzed horse serum, 50μg/mL gentamycin, 100μg/mL streptomycin, 100μg/mL penicillin, and 550μg/mL sodium pyruvate). 30nL of cRNA was injected into multiple oocytes using a microinjection syringe pump (World Precision Instruments, Sarasota, FL, USA) maintained at 18°C for 48–72 hrs. Odorant blends were perfused across individual oocytes for 10–15 seconds, held at a resting membrane potential of -80 mV using an OC-725C oocyte clamp (Warner Instruments, LLC, Hamden, CT, USA). Induced currents were measured indirectly using the two-electrode voltage clamp technique (TEVC). Following each stimulus, currents were allowed to return to baseline before further stimulation. Data was captured using the Digidata 1550 B digitizer and PClamp10 software (Molecular Devices, San Jose, CA, USA). Concentration-response curves were generated by perfusing unitary odorants over oocytes at increasing concentrations from [10^-3M] to [10^-9M]. Data were analyzed using GraphPad Prism 8 (GraphPad Software Inc., La Jolla, CA, USA). At least two biological replicates were conducted at each concentration and for each compound. Data for at least seven oocytes responding to each compound was analyzed (S7 File).

AaegOR71 = target: T2, AaegOR71 (Aedes aegypti, UniProt A0A3S7SHD4); test: Two-electrode voltage clamp of Xenopus laevis oocytes expressing AaegOR71/Orco (blends, unitary compounds, concentration-response); assay type: cell-based; details: Indoles 2 unitary compounds
T2 sequence (A0A3S7SHD4 1-415): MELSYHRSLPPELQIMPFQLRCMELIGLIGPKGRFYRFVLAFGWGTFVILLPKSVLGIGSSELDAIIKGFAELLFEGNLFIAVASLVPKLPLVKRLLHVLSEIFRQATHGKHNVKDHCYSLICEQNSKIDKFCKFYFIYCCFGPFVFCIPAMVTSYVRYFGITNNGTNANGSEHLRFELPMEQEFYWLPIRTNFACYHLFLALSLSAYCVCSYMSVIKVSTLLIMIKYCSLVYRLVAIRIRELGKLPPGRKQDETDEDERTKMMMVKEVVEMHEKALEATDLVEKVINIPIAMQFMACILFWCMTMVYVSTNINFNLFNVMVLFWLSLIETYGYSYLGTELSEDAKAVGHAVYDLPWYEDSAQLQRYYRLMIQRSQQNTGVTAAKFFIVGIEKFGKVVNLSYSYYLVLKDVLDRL
T2 sequence (Q178U6 1-478 partner): T1 sequence (Q178U6 1-478 partner)
Source text: as §1, §2, §3

| Structure (SMILES) | Raw data (Responses in nA) Oocyte 1 (AaegOR6) [nA] | Raw data (Responses in nA) Oocyte 2 (AaegOR6) [nA] | Raw data (Responses in nA) Oocyte 3 (AaegOR6) [nA] | Raw data (Responses in nA) Oocyte 4 (AaegOR6) [nA] | Raw data (Responses in nA) Oocyte 5 (AaegOR6) [nA] | Raw data (Responses in nA) Oocyte 6 (AaegOR6) [nA] | Raw data (Responses in nA) Oocyte 7 (AaegOR6) [nA] | Raw data (Responses in nA) Oocyte 8 (AaegOR6) [nA] | Raw Data (Response in nA) Oocyte 1 (AaegOR71) [nA] | Raw Data (Response in nA) Oocyte 2 (AaegOR71) [nA] | Raw Data (Response in nA) Oocyte 3 (AaegOR71) [nA] | Raw Data (Response in nA) Oocyte 4 (AaegOR71) [nA] | Raw Data (Response in nA) Oocyte 5 (AaegOR71) [nA] | Raw Data (Response in nA) Oocyte 6 (AaegOR71) [nA] | Raw Data (Response in nA) Oocyte 7 (AaegOR71) [nA] | Raw Data (Response in nA) Oocyte 8 (AaegOR71) [nA] | EC50 (AaegOR6; AaegOR6/Orco expressing oocytes, TEVC, concentration-response of normalized current) |
| --- | --- | --- | --- | --- | --- | --- | --- | --- | --- | --- | --- | --- | --- | --- | --- | --- | --- |
| OCc1c[nH]c2ccccc12 [3-Indolemethanol] | 0.0 | 0.0 | 10.0 | 0.0 | 0.0 | 0.0 | 0.0 | 0.0 | 240 | 0 | 0 | 0 | 0 | 0 | 0 | 0 | – |
| O=C1Nc2ccccc2C1=O [Isatin] | 0.0 | 0.0 | 10.0 | 0.0 | 0.0 | 0.0 | 0.0 | 0.0 | 150 | 0 | 0 | 0 | 0 | 0 | 10 | 0 | – |
| O=C1Cc2ccccc2N1 [Oxindole] | 0.0 | 0.0 | 0.0 | 0.0 | 0.0 | 0.0 | 0.0 | 10.0 | 0 | 20 | 0 | 10 | 0 | 10 | 5 | 20 | – |
| O=C1CCOc2ccccc21 [4-chromanone, 4-Chromanone] | 70.0 | 50.0 | 90.0 | 170.0 | 70.0 | 650.0 | 510.0 | 510.0 | 0 | 310 | 15 | 140 | 15 | 60 | 30 | 20 | ~6.84 µM and 6.84 µM |

From article PMC11073699, “Odorant receptors for floral- and plant-derived volatiles in the yellow fever mosquito, Aedes aegypti (Diptera: Culicidae)” (PLOS ONE, 2024)
